Test results: US9289365B2, “Compositions and methods for stimulating collagen synthesis in the skin” (Avon Products, Inc., priority 2011, dated 2016)

tested on: Human dermal fibroblasts; test: Stimulation of collagen synthesis in human dermal fibroblasts, procollagen type I C-peptide (PIP) EIA; type: cell-based; conditions: compound at 0.0005% in DMSO, triplicate, 48-hour incubation; procollagen type I C-peptide in conditioned medium; increase in collagen over DMSO control
Experimental: The compounds 1-5, and 8-9 were assayed for stimulation of collagen synthesis as follows. Human dermal fibroblasts (Cascade Biologics, Portland, Oreg.) were plated at 10,000 cells/well in 96-well culture plates in supplemented medium (DMEM, 10% Fetal Bovine Serum, 1% Penicillin/Streptomycin and 1% L-Glutamine) overnight in humidified atmosphere of 10% CO2 at 37° C. The next day, the medium was replaced with fresh medium (DMEM, 1% Penicillin/Streptomycin and 1% L-Glutamine) and the compounds dissolved DMSO were added to the wells in triplicate at a concentration of 0.0005%, DMSO solution was used a control. Following 48-hour incubation, the plates were removed from the incubator and the medium from each well was collected for the procollagen assay.
Collagen production was measured using procollagen type I C-peptide (PIP) EIA kit (Takara Bio, Inc., Japan). Briefly, the conditioned medium was diluted 1:10 in Sample Diluent, 20 μl of diluted conditioned medium and 100 μl of antibody-POD conjugate solution were added to the wells of the Takara HASA plate. The ELISA plate was incubated at 37° C. for 3 hours before the wells were washed four times with 400 μl of 1×PBS. At the end of wash, 100 μl of substrate solution (supplied with kit) was added to the wells and incubated at room temperature for 15 minutes. The reaction was stopped by adding 100 μl of 1N sulfuric acid to the wells. The absorbance was measured on a spectrophotometer at 450 nm wavelength. The amount of procollagen peptide in the conditioned medium was calculated from the standard curve. The stimulation of collagen production was shown as an increase in collagen over the control.

| SMILES | % Collagen Stimulation [%] |
| --- | --- |
| CCc1c(C(=O)N2CCCC2)cnn1-c1ccccc1Cl [Compound 1] | 73.2 |
| Cc1c(C(=O)N2CCCC2)c(CC(C)C)nn1-c1ccccc1 [Compound 2] | 23.1 |
| CCCc1c(C(=O)N2CCOCC2)cnn1-c1ccccc1Cl [Compound 3] | 13.5 |
| Cc1c(C(=O)N2CCCC2)cnn1-c1ccccc1 [Compound 4] | 12.5 |
| CCCc1c(C(=O)N2CCCC2)cnn1-c1ccccc1C [Compound 5] | 45.23 |
| Cc1ccccc1N1CCN(C(=O)c2cc(-c3ccccc3)nn2-c2ccc(Cl)c(Cl)c2)CC1 [Compound 8] | 83.7 |
| Cc1ccccc1N1CCN(C(=O)c2cc(-c3cccn3C)nn2-c2ccccc2Cl)CC1 [Compound 9] | 62.2 |
